The text below walks through data of article PMC5816602, “Optimized peptide based inhibitors targeting the dihydrofolate reductase pathway in cancer” (Scientific Reports, 2018).

Assay [1] concerns the target T1, hDHFR (Homo sapiens, UniProt P00374).
T1 construct: purchased Sigma CS0340
T1 sequence (P00374 1-187): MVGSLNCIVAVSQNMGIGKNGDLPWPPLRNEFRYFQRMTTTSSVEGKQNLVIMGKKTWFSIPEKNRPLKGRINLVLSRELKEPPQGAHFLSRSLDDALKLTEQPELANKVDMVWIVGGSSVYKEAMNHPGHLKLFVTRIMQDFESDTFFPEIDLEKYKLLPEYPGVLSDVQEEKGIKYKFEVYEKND
Kind of assay: In vitro DHFR inhibition assay (DHFR assay kit, absorbance at 340 nm). The class given is biochemical. How it is done:
The activity of the designed peptides against hDHFR was evaluated by measuring the conversion of dihydrofolic acid to tetrahydrofolic acid in the presence of the test peptide using […].
The dihydrofolate reductase inhibition assay was performed using DHFR assay kit (Sigma product code CS0340) according to the reported protocol. All the dilutions were made in assay buffer, pH 7.5. 10 mM stock solutions of dihydrofolic acid and NADPH in assay buffer were prepared. Stock solutions of the test peptides with different concentrations were prepared in DMSO, and an amount of 20 μL of each was taken to attain final concentration of 10^−9, 10^−8, 10^−7, 10^−6, 10^−5, and 10^−4 M in the respective wells of 96-well plate containing assay buffer. An amount of 0.1 unit of DHFR as supplied in the kit was diluted, and an amount of 20 μL of its 3 × 10^−3 unit was used in each reaction. Each well of the 96-well plate was charged with 157.8 μL of assay buffer. […] Percentage inhibition of enzymatic activity was calculated after nullifying the effects of NADPH, folate, and solvent. IC50 was calculated by plotting a graph between percentage inhibition and the corresponding concentration of the peptide.

For the next assay, the system named is A549 cells. Particulars: 48 hrs, MTT; for effect on cell viability of A549 cells: increasing concentrations.
The target in assay [2] is T1, hDHFR. Description: Isothermal titration calorimetry (ITC). It counts as binding. Particulars: Table 2, read-out: Ka (converted). An excerpt: The binding of peptide 2 with hDHFR was further determined using isothermal titration calorimetry (ITC). ITC is considered as one of the most precise techniques to measure the affinity between a macromolecule and a small molecule. Since it measures the heat absorbed or released during complexation, it allows simultaneous determination of all binding parameters with respect to the binding constant (K), enthalpy (ΔH), and entropy (ΔS) in a single experiment. The solution of peptide 2 (in the syringe) was injected into the DHFR enzyme solution taken in the sample cell. In one experiment, 20 consecutive injections of 2 μL of 250 μM peptide were given to the sample cell. Upon each titration, the amount of heat released or absorbed was measured and used to determine the association constant (Ka), binding enthalpy (ΔH), and entropy (ΔS).

The mark [3] stands for this setting: six concentrations 10^−4 to 10^−9 M, assay buffer pH 7.5, read-out: IC50 against hDHFR.

One may read the IC50 as the midpoint of a concentration-inhibition curve.

In brackets after ≈: the same amount, converted by molar mass. Read-outs that look alike come from different tables or passages of the source. Residues, ends and D or L forms follow the SMILES beside them.

Method for A549 cells: Cell viability was measured using 3-(4,5-Dimethylthiazol- 2-yl)-2,5- Diphenyltetrazolium Bromide (MTT) assay. […] Following that, 20 µL of 5 mg/ml of MTT reagent was added in a total volume of 200 µl and incubated for 2 hours. The culture media was removed and the formazan crystals so formed were dissolved in 200 µl of dimethyl sulfoxide (DMSO). Absorbance was measured at 570 nm (with 660 nm reference wavelength) using Tecan plate reader (Infinite M200 Pro). Each individual experiment was repeated at least thrice. Relative cell viability was expressed as a percentage relative to untreated control cells.

`CSCC[C@H](NC(=O)[C@H](Cc1ccc(O)cc1)NC(=O)[C@@H](N)Cc1ccccc1)C(=O)NCC(=O)N[C@@H](CC(C)C)C(=O)O` [Peptide 9, Phe-Tyr-Met-Gly-Leu] (H-FYMGL-OH) showed an IC50 at hDHFR [1] of over 80 µM.

Regarding `CSCC[C@H](N)C(=O)N[C@@H](Cc1ccc(O)cc1)C(=O)N[C@@H](CO)C(=O)N[C@@H](CC(C)C)C(=O)O` [Peptide 6, Met-Tyr-Ser-Leu] (H-MYSL-OH; N-terminus assumed), the IC50 on hDHFR [1] (setting [3]) amounted to 8 µM.

With `CSCC[C@H](N)C(=O)N[C@@H](Cc1ccccc1)C(=O)N[C@@H](Cc1ccc(O)cc1)C(=O)NCC(=O)N[C@@H](CC(C)C)C(=O)O` [Peptide 10, Met-Phe-Tyr-Gly-Leu] (H-MFYGL-OH), the IC50 at hDHFR [1] (setting [3]) was over 100 µM.

In turn, `CSCC[C@H](NC(=O)[C@H](Cc1ccccc1)NC(=O)[C@H](CO)NC(=O)[C@@H](N)Cc1ccc(O)cc1)C(=O)N[C@@H](CC(C)C)C(=O)O` [Peptide 11, Tyr-Ser-Phe-Met-Leu] (H-YSFML-OH) came in with an IC50 against hDHFR [1] of 0.08 µM.

Consider `CSCC[C@H](NC(=O)[C@@H](N)Cc1ccccc1)C(=O)N[C@@H](Cc1ccc(O)cc1)C(=O)N[C@@H](CC(C)C)C(=O)O` [Peptide 2, Phe-Met-Tyr-Leu] (H-FMYL-OH), for which the “IC50 in A549 cells” value in the assay with A549 cells was determined as 47 µg/mL (≈ 82.1 µM). Also, the IC50 in the assay with A549 cells (read-out: IC50 in A549 cells) stood at 82 µM; at hDHFR [1] (setting [3]), 0.13 µM. Also, the Kd on hDHFR [2] was 0.909 µM.

`CSCC[C@H](NC(=O)[C@@H](N)Cc1ccccc1)C(=O)N[C@@H](Cc1ccc(O)cc1)C(=O)N[C@@H](CC(C)C)C(=O)NCC(=O)O` [Peptide 8, Phe-Met-Tyr-Leu-Gly] (H-FMYLG-OH): the IC50 at hDHFR [1] (setting [3]) was over 100 µM.

The compound `CSCC[C@H](NC(=O)[C@H](Cc1ccccc1)NC(=O)[C@@H](N)Cc1ccc(O)cc1)C(=O)N[C@@H](CC(C)C)C(=O)NCC(=O)O` [Peptide 7, Tyr-Phe-Met-Leu-Gly] (H-YFMLG-OH) registered an IC50 at hDHFR [1] of over 100 µM.

In the case of `CSCC[C@H](NC(=O)[C@@H](N)Cc1ccc(O)cc1)C(=O)N[C@@H](Cc1ccccc1)C(=O)N[C@@H](CO)C(=O)N[C@@H](CC(C)C)C(=O)O` [Peptide 12, Tyr-Met-Phe-Ser-Leu] (H-YMFSL-OH), the concentration for half-maximal inhibition (IC50) on hDHFR [1] was over 90 µM.

Turning to `CSCC[C@H](N)C(=O)N[C@@H](Cc1ccccc1)C(=O)N[C@@H](Cc1ccc(O)cc1)C(=O)NCC(=O)O` [Peptide 4, Met-Phe-Tyr-Gly] (H-MFYG-OH; N-terminus assumed), the “effect on cell viability of A549 cells” value with A549 cells is “did not affect their cell viability”. For the same compound, the IC50 on hDHFR [1] (setting [3]) was over 90 µM.

Regarding `CSCC[C@H](NC(=O)[C@H](Cc1ccc(O)cc1)NC(=O)[C@@H](N)Cc1ccccc1)C(=O)NCC(=O)O` [Peptide 3, Phe-Tyr-Met-Gly] (H-FYMG-OH; N-terminus assumed), in the assay on A549 cells, the “effect on cell viability of A549 cells” value was “did not affect their cell viability”. At hDHFR [1] (setting [3]), the half-maximal inhibitory concentration (IC50) was 5.6 µM.

On hDHFR [1], `CSCC[C@H](NC(=O)[C@H](Cc1ccccc1)NC(=O)[C@@H](N)Cc1ccc(O)cc1)C(=O)N[C@@H](CC(C)C)C(=O)O` [Peptide 1, Tyr-Phe-Met-Leu] (H-YFML-OH; N-terminus assumed) had an IC50 of over 100 µM.

`CSCC[C@H](NC(=O)[C@@H](N)Cc1ccc(O)cc1)C(=O)N[C@@H](CO)C(=O)N[C@@H](CC(C)C)C(=O)O` [Peptide 5, Tyr-Met-Ser-Leu] (H-YMSL-OH; N-terminus assumed) came in with an IC50 against hDHFR [1] of over 100 µM.
